The source made the active and inactive calls. For most assays here, no stated cut-off is given here; in the data, actives have a measured EC50 and inactives only a lower limit.
Legend:
cells = type: functional
[1] = target: T1, RNA-binding protein pos-1 (Caenorhabditis elegans, UniProt G5EF15); test: disruptors of C. elegans POS-1 RNA interaction – biochemical, fluorescence polarization, dose response (AID 1964);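 further: purified POS-1 fused to maltose binding protein made in E. coli; potency of compounds blocking POS-1 binding to fluorescent RNA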
T1 sequence (G5EF15 whole entry): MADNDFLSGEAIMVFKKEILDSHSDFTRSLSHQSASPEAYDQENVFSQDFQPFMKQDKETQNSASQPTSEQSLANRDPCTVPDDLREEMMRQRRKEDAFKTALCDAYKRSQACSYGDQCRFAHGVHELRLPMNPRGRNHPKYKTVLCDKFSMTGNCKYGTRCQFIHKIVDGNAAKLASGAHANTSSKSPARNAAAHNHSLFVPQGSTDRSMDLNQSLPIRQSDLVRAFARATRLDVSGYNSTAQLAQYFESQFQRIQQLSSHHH

[2] = target: T2, Zinc finger protein mex-5 (Caenorhabditis elegans, UniProt Q9XUB2); test: potency of MEX-5 RNA-binding blockers – biochemical, C. elegans, fluorescence polarization, dose response (AID 1960)
T2 sequence (Q9XUB2 whole entry): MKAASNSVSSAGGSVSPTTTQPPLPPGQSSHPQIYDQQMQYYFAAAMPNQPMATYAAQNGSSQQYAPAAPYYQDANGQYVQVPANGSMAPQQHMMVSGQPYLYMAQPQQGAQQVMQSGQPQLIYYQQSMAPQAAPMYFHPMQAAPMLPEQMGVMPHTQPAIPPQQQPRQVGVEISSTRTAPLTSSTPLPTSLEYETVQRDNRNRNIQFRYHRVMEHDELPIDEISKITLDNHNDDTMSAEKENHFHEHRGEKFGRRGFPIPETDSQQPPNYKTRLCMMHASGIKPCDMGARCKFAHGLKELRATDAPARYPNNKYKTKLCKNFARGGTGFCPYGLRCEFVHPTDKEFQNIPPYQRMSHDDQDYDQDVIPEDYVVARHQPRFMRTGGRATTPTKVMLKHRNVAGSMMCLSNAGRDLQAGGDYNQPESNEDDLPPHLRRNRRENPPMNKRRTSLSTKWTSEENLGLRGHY

[3] = NIH-3T3 fibroblast cytotoxicity, dose response, cytotoxicity control, cell-based, fluorescence, Alamar Blue, secondary assay (AID 2327); type: functional;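 further: NIH-3T3 mouse fibroblasts cultured with fluconazole at 8 µg/mL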
[4] = fluconazole-exposed Candida albicans growth modulators – fluorescence, retest, confirmation (AID 2467); type: functional, cell-based
[5] = target: T3, Corticotropin-releasing factor receptor 2/Corticotropin-releasing factor-binding protein (Homo sapiens, UniProt P24387+Q13324); test: activators of CRF receptor 2 with binding protein – uHTS hits, confirmation (AID 602473); type: functional; conditions: read-out: EC50_Mean
T3 sequence (Q13324 whole entry): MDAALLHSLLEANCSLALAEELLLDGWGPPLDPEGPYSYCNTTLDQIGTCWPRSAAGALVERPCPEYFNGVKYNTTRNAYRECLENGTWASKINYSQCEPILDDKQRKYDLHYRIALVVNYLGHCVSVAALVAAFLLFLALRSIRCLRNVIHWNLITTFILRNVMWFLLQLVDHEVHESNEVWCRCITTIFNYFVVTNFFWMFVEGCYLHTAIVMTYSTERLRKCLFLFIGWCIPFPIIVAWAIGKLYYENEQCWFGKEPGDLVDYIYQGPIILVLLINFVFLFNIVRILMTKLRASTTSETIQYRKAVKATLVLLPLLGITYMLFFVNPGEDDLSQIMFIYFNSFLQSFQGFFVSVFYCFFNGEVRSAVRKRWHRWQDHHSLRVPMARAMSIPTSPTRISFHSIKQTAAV
T3 sequence (P24387 whole entry): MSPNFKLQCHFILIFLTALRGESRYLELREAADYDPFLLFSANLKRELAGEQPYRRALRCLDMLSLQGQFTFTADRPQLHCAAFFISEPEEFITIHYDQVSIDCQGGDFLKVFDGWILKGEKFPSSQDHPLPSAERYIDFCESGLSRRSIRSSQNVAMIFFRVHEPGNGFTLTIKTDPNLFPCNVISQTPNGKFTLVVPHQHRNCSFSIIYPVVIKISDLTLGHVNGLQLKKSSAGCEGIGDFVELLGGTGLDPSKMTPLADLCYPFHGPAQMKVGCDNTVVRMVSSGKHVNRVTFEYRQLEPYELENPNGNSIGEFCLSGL

[6] = Trypanosoma cruzi growth suppression in host cells – NIH3T3 host cells, beta-gal luminescence, confirmation (AID 2044); type: functional, cell-based;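 further: intracellular parasites grown in NIH/3T3 mouse fibroblasts as host cells; luminescent beta-galactosidase reporter signal from transgenic T. cruzi replicating inside host cells; inhibitors lower the luminescence signal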
[7] = NIH3T3 cell viability loss – ATP luminescence, mouse fibroblasts, counter-screen, dose response (AID 2010); type: functional, cell-based;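 further: cells exposed to compound for about 90 hours before reading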
Cytochrome P450 2D6 = Cytochrome P450 2D6 (Homo sapiens, UniProt P10635);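 further: CYP2D6 member of a cytochrome P450 panel assay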
[8] = HIV-1 AD8 envelope cell-cell fusion blockers – cherry-pick, dose response (AID 652062); type: functional, cell-based;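 further: luciferase signal from cell-cell fusion driven by HIV-1 clade B AD8 Env; potency is for inhibitors of fusion seen as a drop in luminescence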
[9] = target: T4, Heat shock factor protein 1 (Mus musculus, UniProt P38532); test: enhancement of HSF1-driven luciferase signal – cell-based, NIH3T3, luminescence, dose retest, confirmation (AID 435004); type: functional;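 further: stress induced by proteasome inhibitor MG132 added 30 min after compound; luciferase reporter driven by HSF1 response element in NIH3T3 cells; actives raise luminescence as potentiators of the MG132 stress response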
T4 sequence (P38532 whole entry): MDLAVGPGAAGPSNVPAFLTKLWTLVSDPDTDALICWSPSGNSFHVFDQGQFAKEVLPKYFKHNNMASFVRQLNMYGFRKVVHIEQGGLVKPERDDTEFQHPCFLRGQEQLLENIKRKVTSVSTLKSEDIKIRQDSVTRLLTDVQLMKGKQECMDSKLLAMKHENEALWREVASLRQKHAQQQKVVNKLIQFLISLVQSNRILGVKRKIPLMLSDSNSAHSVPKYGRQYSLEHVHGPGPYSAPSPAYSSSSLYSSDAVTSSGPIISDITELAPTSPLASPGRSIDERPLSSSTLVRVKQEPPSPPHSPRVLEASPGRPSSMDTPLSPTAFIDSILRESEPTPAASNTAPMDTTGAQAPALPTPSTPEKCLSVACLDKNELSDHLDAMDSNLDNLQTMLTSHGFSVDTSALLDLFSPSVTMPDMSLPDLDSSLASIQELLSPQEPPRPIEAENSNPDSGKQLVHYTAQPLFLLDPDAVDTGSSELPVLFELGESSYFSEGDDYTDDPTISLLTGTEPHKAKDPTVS

[10] = viability of uninfected HEp-2 cells – cell-based, HTS, cytotoxicity control for RSV inhibitor project, dose response (AID 2410); type: functional; conditions: human respiratory syncytial virus
[11] = target: T5, Microphthalmia-associated transcription factor (Homo sapiens, UniProt O75030); test: reducers of TRPM1 reporter luminescence, concentration series – cell-based, SK-MEL-5, cherry-picked, set 3, MITF inhibitor project, dose response (AID 493073); type: functional;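 further: SK-MEL-5 melanoma cells with luciferase driven by the MITF target TRPM1 promoter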
T5 sequence (O75030 whole entry): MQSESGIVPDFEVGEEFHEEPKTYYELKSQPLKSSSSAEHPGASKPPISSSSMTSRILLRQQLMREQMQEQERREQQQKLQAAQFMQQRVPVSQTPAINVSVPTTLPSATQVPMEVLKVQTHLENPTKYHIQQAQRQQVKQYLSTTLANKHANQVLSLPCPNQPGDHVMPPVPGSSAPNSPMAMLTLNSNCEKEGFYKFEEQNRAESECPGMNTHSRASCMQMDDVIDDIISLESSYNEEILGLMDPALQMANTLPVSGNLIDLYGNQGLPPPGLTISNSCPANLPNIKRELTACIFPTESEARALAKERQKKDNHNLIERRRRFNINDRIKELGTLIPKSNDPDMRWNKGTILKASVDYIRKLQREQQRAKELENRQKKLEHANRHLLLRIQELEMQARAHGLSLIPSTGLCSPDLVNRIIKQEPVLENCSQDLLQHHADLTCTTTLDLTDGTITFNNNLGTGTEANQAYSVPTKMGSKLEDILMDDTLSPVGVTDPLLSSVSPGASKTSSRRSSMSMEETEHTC

Chain of Cytochrome P450 2D6 (P10635 whole entry, the tested form may be a part): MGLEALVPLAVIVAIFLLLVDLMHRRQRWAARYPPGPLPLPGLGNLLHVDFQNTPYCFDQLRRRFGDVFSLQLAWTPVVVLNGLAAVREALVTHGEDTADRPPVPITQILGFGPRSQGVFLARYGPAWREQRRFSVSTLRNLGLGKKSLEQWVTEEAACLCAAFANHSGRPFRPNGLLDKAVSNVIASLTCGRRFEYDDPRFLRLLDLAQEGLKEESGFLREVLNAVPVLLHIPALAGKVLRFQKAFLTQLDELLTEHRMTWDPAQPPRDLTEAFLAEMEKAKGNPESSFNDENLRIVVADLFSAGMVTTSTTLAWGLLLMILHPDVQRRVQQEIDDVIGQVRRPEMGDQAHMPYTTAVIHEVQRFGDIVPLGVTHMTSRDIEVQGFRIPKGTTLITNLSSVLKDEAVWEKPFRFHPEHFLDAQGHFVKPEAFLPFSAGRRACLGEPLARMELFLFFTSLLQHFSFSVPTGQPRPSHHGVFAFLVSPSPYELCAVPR

Cc1cccc(NC(=O)CCSc2nnc(Cc3ccccc3)o2)c1
IC50 (cells): 39.8 µM (active)

CC1(C)CC(=O)C2=C(C1)OC(N)=C(C#N)C2c1ccccc1OC(=O)N1CCOCC1 (configuration not stated)
EC50 [1]: > 300 µM (not active)
EC50 [2]: > 300 µM (not active)

CCCCOC(=O)CSC1=C(C#N)C(c2ccccc2OCC)C(C#N)C(=O)N1 (configuration not stated)
EC50 [1]: > 300 µM (not active)
EC50 [2]: > 300 µM (inconclusive)

Clc1ccccc1-c1nc2ccccc2c2nc3ccccc3n12
EC50 [3]: > 150 µM (inactive)
EC50 [4]: 12.2 µM (active)

COC(=O)c1c(C(=O)OC)c2n(c1C)Cc1ccccc1C2
EC50 [1]: > 300 µM (not active)
EC50 [2]: 43.7 µM (active)

O=C(OCc1nc2ccccc2s1)c1ccc(Br)o1
IC50 (cells): 11.9 µM (active)

O=C(N/N=C\C=C\c1ccco1)c1cncc(Br)c1
IC50 (cells): > 50 µM (active)

CC(=O)c1cc(NC(=O)c2ccc(Cl)cc2)c(=O)oc1/C=C/N(C)C
EC50 [1]: 57.3 µM (active)
EC50 [2]: 4.07 µM (active)
EC50 [5]: 5 µM (active)

Cc1ccc(C)c(S(=O)(=O)Nc2ccccc2C(=O)Nc2cc(C)on2)c1
EC50 [3]: > 160 µM (inactive)
EC50 [4]: 1.28 µM (active)

Cc1ccsc1/C=N/NC(=O)c1ccncc1
IC50 (cells): 3.02 µM (active)

COc1cccc2s/c(=N/C(=O)CS(=O)(=O)c3ccc(Cl)cc3)n(C)c12
EC50 [3]: > 160 µM (inactive)
EC50 [6]: 0.34 µM (active)
EC50 [7]: > 60 µM (not active)
EC50 [4]: 2.16 µM (active)

Cn1c(CN2CCCCC2)nc2cc(NC(=O)c3ccc(Cl)cc3)ccc21
AC50 (Cytochrome P450 2D6): 0.0316 µM (inconclusive)
AC50 [8]: 28.7 µM (active)

Cn1c(=O)oc2cc(S(=O)(=O)N3CCCCC3)ccc21
EC50 [9]: > 260 µM (inactive)

CCCCN1CCc2c1nc1ccc(Br)cc1c2N
CC50 [10]: 14.1 µM (active)
AC50 [11]: 12.2 µM (active)

CC(c1ccc(Cl)cc1)n1c(S)nnc1-c1ccc2ccccc2n1 (configuration not stated)
EC50 [3]: > 160 µM (inactive)
AC50 (Cytochrome P450 2D6): 39.8 µM (inconclusive)
EC50 [4]: 4.24 µM (active)

CC(=O)NC(=O)NC1OC(=O)C(Cl)=C1Cl (configuration not stated)
EC50 [9]: > 260 µM (inconclusive)

CCOC(=O)c1sc(C)c2c1NC(C)(c1cccc3ccccc13)NC2=O (configuration not stated)
EC50 [9]: > 260 µM (inactive)

Cc1cccc(N2C(=O)NC(=O)/C(=C/Nc3ccccc3N)C2=O)c1
EC50 [3]: > 160 µM (inactive)
EC50 [4]: > 38 µM (not active)

CSc1nn(-c2ccc(C(=O)OCC(=O)NC(=O)NC(C)C)cc2)c(=S)s1
IC50 (cells): 13.2 µM (active)

Cc1cccn2c(=O)c3cc(C(=O)NCC4CCCO4)c(=N)n(CCc4ccccc4)c3nc12 (configuration not stated)
EC50 [1]: 102 µM (active)
EC50 [2]: 7.9 µM (inconclusive)

Cc1nc2ccc(N3CCN(C)CC3)cc2nc1C
EC50 [1]: > 300 µM (not active)
EC50 [2]: > 300 µM (not active)

Cc1ccccc1NC(=O)CSc1nc(Nc2ccccc2)nc(N2CCOCC2)n1
EC50 [9]: > 260 µM (inactive)

O=C(Nc1nc2ccccc2[nH]1)c1ccc(OC(F)F)cc1
EC50 [9]: > 260 µM (inconclusive)

O=C(CCCSc1nc2ccccc2[nH]1)N1CCN(c2ccc([N+](=O)[O-])cc2)CC1
EC50 [9]: > 260 µM (inactive)

O=C(/C=C/c1ccc([N+](=O)[O-])s1)N1CCCCC1
AC50 [11]: 4.16 µM (active)

From ChEMBL document CHEMBL1201862, “PubChem BioAssay data set” (2004)
